Data reported in ChEMBL document CHEMBL1151394, “Cytotoxic agent from Senecio anonymus wood” (1982).
Values after ≈ are worked out from the molar mass of the structure shown.

Tests used:
[1] = system: KB; experiment: Cytotoxicity against human KB cells; assay type: functional; details: read-out: ED50 (the source's name)
[2] = system: P388; experiment: In vivo cytotoxicity against mouse P388 cells; assay type: functional

CCOC(=O)CC1(O)C=CC(=O)C=C1 gave an EC50 [1] of 3.3 µg/mL (≈ 16.8 µM).
COC(=O)CC1(O)C=CC(=O)C=C1 [JACARANONE] gave an EC50 [1] of 2.1 µg/mL (≈ 11.5 µM) and a T/C [2] of 165%.
